The results in this text go back to US12344599B2, “Prodigiosin analogs and methods of use” (Institute For Cancer Research, priority 2016, dated 2025).

The test system of experiment [1] is HT29. In words: CellTiterGlo cell viability assay, HT29. Format: cell-based. The settings on record: Homo sapiens, HT-29; HT29, colorectal cancer, p53 R273H, 72 hours. As for the experimental part:
(§1) • 1) Cell lines: HT29, SW480, DLD-1, HCT116, and p53-null HCT116 cells, H1975, MDA-MD-231, U251, FaDu, CAL-27, PANC-1, Aspc-1, and MRC5 were obtained from the ATCC and cultured as recommended. Cells were regularly authenticated by bioluminescence, growth, and morphologic observation. The cells were routinely examined for Mycoplasma and all cell lines underwent STR authentication. • 2) Western blotting: After treatment, protein lysates were collected for Western blot analysis. 15 μg of protein was used for SDS-PAGE. After primary and secondary antibody incubations, the signal was detected by chemiluminescent detection kit, imaged by Syngene (Imgen Technologies). […] The cell viability was assessed by CellTiterGlo bioluminescent cell proliferation assay (Promega), following the manufacturer's protocol. Bioluminescence imaging was measured using the IVIS imager. Percentage of cell viability (mean±SEM) at each dose was calculated against the respective DMSO control. The IC50 values were determined from the sigmoidal dose-response curves using GraphPad Prims4. • 4) Caspase activity assay: Cells were seeded in 96-well plate (1×10^4 cells/well). […] The caspase 3/7 activity was assessed by Caspase-Glo® 3/7 Assay kit (Promega), following the manufacturer's protocol. Bioluminescence imaging was measured using the IVIS imager. […]

Experiment [2] deals with SW480. In words: CellTiterGlo cell viability assay, SW480. Particulars: Homo sapiens; SW480, colorectal cancer, p53 R273, P309S, 72 hours. It counts as cell-based. As for the experimental part:
as §1

The test system of experiment [3] is CAL-27. In words: CellTiterGlo cell viability assay, CAL-27. Particulars: Homo sapiens; CAL-27, head & neck squamous cell carcinoma, p53 H193L, 72 hours. Format: cell-based. As for the experimental part: as §1
Background: In ATP-based viability assays light output follows the ATP content of the culture.

In experiment [4] the test system is PANC-1. In words: CellTiterGlo cell viability assay, PANC-1. It counts as cell-based. Particulars: Homo sapiens; PANC-1, pancreatic cancer, p53 R273H, 72 hours. Here is the method: as §1
The subject of experiment [5] is MDA-MB-231. In words: CellTiterGlo cell viability assay, MDA-MB-231. Format: cell-based. The settings on record: Homo sapiens; MDA-MB-231, breast cancer, p53 R280K, 72 hours. As for the experimental part:
as §1

Experiment [6] deals with p53-target genes. In words: Western blotting of p53-target genes (Example 1). It counts as cell-based, human. Here is the method: After treatment, protein lysates were collected for Western blot analysis. Twenty-five micrograms of protein were used for SDS-PAGE. After primary and secondary antibody incubations, the signal was detected with a chemiluminescent detection kit, followed by autoradiography or Syngen. […] In FIG. 10, p53-null HCT116 cells were treated with P01 and P306, alone or in combination with SiCon or SiTAp73, in various concentrations for 6 hours, and tested for p73 (C.S.), p73 (Bethyl), P63-α, p53, DR5, Puma, P21, and Ran proteins.
On the technique in general: A western blot detects proteins with antibodies after separation by electrophoresis.

Experiment [7] relates to caspase 3/7. Briefly: Caspase-Glo 3/7 caspase activity assay. It counts as cell-based, human. The settings on record: mutant p53 and p53-null cancer cells, 24 hours. As for the experimental part:
as §1

Experiment [8] concerns HT29 cells. Briefly: Flow cytometry sub-G1 (PI staining) analysis. Particulars: for sub-G1 populations: HT29, co-treatment with PG3-Oc and TRAIL; for sub-G1 population: 1 μM PG3-Oc for 48 hours. Format: cell-based, human. As for the experimental part: • 1) Cell lines: HT29, SW480, DLD-1, HCT116, and p53-null HCT116 cells, H1975, MDA-MD-231, U251, FaDu, CAL-27, PANC-1, Aspc-1, and MRC5 were obtained from the ATCC and cultured as recommended. Cells were regularly authenticated by bioluminescence, growth, and morphologic observation. The cells were routinely examined for Mycoplasma and all cell lines underwent STR authentication. • 2) Western blotting: After treatment, protein lysates were collected for Western blot analysis. 15 μg of protein was used for SDS-PAGE. After primary and secondary antibody incubations, the signal was detected by chemiluminescent detection kit, imaged by Syngene (Imgen Technologies). Antibodies for Puma, FLIPL/S and p53 (Santa Cruz Biotechnology), cleaved caspase 8, caspase 9, caspase 3, cleavage PARP, eIF2α, p-eIF2α(Ser51), CHOP, ATF4, DR5, FOXO3a, p-FOXO3a(Ser253), NF-κB p65, p-NF-κB p65(Ser536), c-Jun, p-c-Jun(Ser63), JNK, p-JNK(Thr183/Tyr185) (Cell Signaling Technology), Noxa, p21 (Calbiochem), p73 (Bethyl laboratories Inc), Ran (BD Biosciences), […] (Sigma). • 3) Cell viability assay: Cells were seeded in 96-well plate (6×10^3 cells/well). Cells were treated with different concentrations of compounds or dimethyl sulfoxide (DMSO) control for 72 hours. The cell viability was assessed by CellTiterGlo bioluminescent cell proliferation assay (Promega), following the manufacturer's protocol. Bioluminescence imaging was measured using the IVIS imager. Percentage of cell viability (mean±SEM) at each dose was calculated against the respective DMSO control. The IC50 values were determined from the sigmoidal dose-response curves using GraphPad Prims4. • 4) Caspase activity assay: Cells were seeded in 96-well plate (1×10^4 cells/well). Cells were treated with different concentrations of compounds or DMSO control for 24 hours. The caspase 3/7 activity was assessed by Caspase-Glo® 3/7 Assay kit (Promega), following the manufacturer's protocol. Bioluminescence imaging was measured using the IVIS imager. Caspase activity was normalized to cell numbers and compared to those of DMSO treatment as control in each cell line. Data is reported as mean RLU+SEM (n=3). • 5) Colony formation assays: Five hundred cells were seeded per well on 6-well plates and treated with different concentrations of compounds for 24 hours, then, cells were cultured with drug-free complete medium for 2 weeks with fresh medium changed every 7 days. Cells were fixed with 10% formalin and stained with 0.05% crystal violet at the end of 2 weeks period of cell culture. • 6) Flow cytometry assay: • a) Cell Cycle Analysis: Propidium iodide (PI) staining and flow cytometry were used to determine the degree of cellular apoptosis. Cells were seeded at 3×10^5 cells/well in six-well plates. Cells were treated with PG3-Oc for 48 hours. Cells were harvested, fixed by 70% ethanol, and stained by propidium iodide, then flow cytometry was performed as previously described (Smithen et al., Org. Biomol. Chem., 2013, 11, 62-68). The percentage of hypodiploid cells (sub-G1) was used to quantify dead cells in apoptosis assays. • b) Early apoptosis detection: Cells were seeded at 3×10^5 cells/well in six-well plates. Cells were treated with PG3-Oc for 48 hours. […]
(Flow cytometry measures light scatter and fluorescence of single cells or particles in a stream.)

Experiment [9] deals with SW480 cells. In words: qRT-PCR of p53 target gene mRNA, SW480. Format: cell-based, human. The settings on record: SW480, 1 μM. As for the experimental part:
Total RNA was isolated from PG3-Oc-treated cells using the Quick-RNA mini prep kit (Zymo Research, Irvine, CA) according to the manufacturer's protocol. 500 ng of total RNA was used to generate cDNA using SuperScript III first-strand synthesis system with random primers (Invitrogen), following the manufacturer's protocol. Real-time PCR was performed using POWER SYBR GREEN mast mix (Applied Biosystem) for DR5, p21, PUMA, GAPDH, and TaqMan primer-probes for detection of c-Myc mRNA levels on 7900HT Sequence Detection System (Applied Biosystem). Primers having SEQ ID NOs:1-6 (see above) were used. Taq Prob IDs for c-Myc (HS 00153408) and GAPDH (HA 99999905). ΔΔCt method was used to analyze and report fold changes of the indicated genes.

Experiment [10] deals with HT29 cells. Briefly: Western blot of apoptosis markers and PUMA, HT29. It counts as cell-based, human. Here is the method: as §1

As for `CCCCCCCCOC(=O)CCc1c(C)[nH]c(/C=C2\N=C(c3ccc[nH]3)C=C2OC)c1C` [PG3-Oc, Octyl (Z)-3-(5-((4′-methoxy-1H,5′H-[2,2′-bipyrrol]-5′-ylidene)methyl)-2,4-dimethyl-1H-pyrrol-3-yl)propanoate], the half-maximal inhibitory concentration (IC50) (usually the concentration at which inhibition is half-maximal) was found to be 66.3 nM in [1]; 95.3 nM in [2]; 33.9 nM in experiment [3]; 136 nM in experiment [4]; 242 nM in experiment [5]. Further, the “expression of p53-target genes” value in experiment [6] was “induced mutant p53 and ΔNp73 degradation and the expression of p53-target genes”. Further, the “increase in caspase 3/7 activity as compared to untreated cells” value in [7] is 2 fold. Also, the sub-G1 populations in [8] (siRNA knockdown of DR5) is listed as 29.5%; in experiment [8] (without DR5 knockdown), 72.9%. The sub-G1 population in experiment [8] (HT29, knockdown of PUMA by siRNA) amounted to 11.1%; in experiment [8] (HT29, siControl), 25.8%. For the same compound, in experiment [9] (8 and 19 hours post-treatment), the “induction of p21 mRNA” value is recorded as “no significant change”. Further, in experiment [9] (19 hours post-treatment), the “DR5 mRNA upregulation” value is recorded as “about 2 fold”. For the same compound, in experiment [10] (HT29, time-course), the “time at which PUMA protein was first induced post treatment” value was found to be 16 h. In addition, the “concentration sufficient to activate cleaved caspase-8 and -3 and cleaved-PARP” value in experiment [10] (western blot) was 0.5 µM.
